Measured values taken from paper PMC6631223, “Chain-Branched Polyhydroxylated Octahydro-1H-Indoles as Potential Leads against Lysosomal Storage Diseases” (Pharmaceuticals, 2019).
Marks after values point to notes of the source that are not given here.

Columns and labels:
Type in all cases: biochemical
α-Glucosidase (yeast) = biological target: T1, α-Glucosidase (yeast) (Saccharomyces cerevisiae, UniProt P53341); experiment: Glycosidase inhibition: α-glucosidase (yeast); settings: α-glucosidase, yeast; 1000 μM
T1 construct: purchased Sigma-Aldrich Co
Source text: (§1) The enzymes α-glucosidase (from yeast, rice), β-glucosidase (from almonds, bovine liver), α-galactosidase (from coffee beans), β-galactosidase (from bovine liver), α-mannosidase (from jack beans), β-mannosidase (from snails), α-L-fucosidase (from bovine kidney), α-L-rhamnosidase (from Penicillium decumbens), β-glucuronidases (from Escherichia coli), α,α-trehalase (from porcine kidney), amyloglucosidase (from Aspergillus niger), p-nitrophenyl glycosides, and various disaccharides were purchased from Sigma-Aldrich Co. Brush border membranes were prepared from the rat small intestine according to the method of Kessler et al., and were assayed at pH 6.8 for rat intestinal maltase using maltose. For rat intestinal glucosidases and porcine kidney trehalase activities, the reaction mixture (0.2 mL) contained 25 mM substrate and the appropriate amount of enzyme, and the incubations were performed for 10 min at 37 °C. The reaction was stopped by heating at 100 °C for 3 min. After centrifugation (600 g; 10 min), 0.035 mL of the resulting reaction mixture were added to 2.1 mL of the Glucose CII-test Wako (Wako Pure Chemical Ind., Osaka, Japan). The absorbance at 505 nm was measured to determine the amount of the released D-glucose. Other glycosidase activities were determined using an appropriate p-nitrophenyl glycoside as substrate at the optimum pH of each enzyme. The reaction mixture (0.2 mL) contained 2 mM of the substrate and the appropriate amount of enzyme. The reaction was stopped by adding 0.4 mL of 400 mM Na2CO3. The released p-nitrophenol was measured spectrometrically at 400 nm.

Rat intestinal maltase = experiment: Glycosidase inhibition: rat intestinal maltase; settings: maltose, pH 6.8, 1000 μM
Source text: as §1

β-Glucosidase (almond) = experiment: Glycosidase inhibition: β-glucosidase (almond); settings: 1000 μM
Source text: as §1

[1] = biological target: T2, Lactase (β-Galactosidase) (Rattus norvegicus, UniProt Q02401); experiment: Glycosidase inhibition: lactase; settings: read-out: inhibition % at 1000 μM
T2 construct: Brush border membranes were prepared from the rat small intestine; from tissue; host or cells: rat small intestine brush border membranes (inferred)
T2 sequence (Q02401 868-1928): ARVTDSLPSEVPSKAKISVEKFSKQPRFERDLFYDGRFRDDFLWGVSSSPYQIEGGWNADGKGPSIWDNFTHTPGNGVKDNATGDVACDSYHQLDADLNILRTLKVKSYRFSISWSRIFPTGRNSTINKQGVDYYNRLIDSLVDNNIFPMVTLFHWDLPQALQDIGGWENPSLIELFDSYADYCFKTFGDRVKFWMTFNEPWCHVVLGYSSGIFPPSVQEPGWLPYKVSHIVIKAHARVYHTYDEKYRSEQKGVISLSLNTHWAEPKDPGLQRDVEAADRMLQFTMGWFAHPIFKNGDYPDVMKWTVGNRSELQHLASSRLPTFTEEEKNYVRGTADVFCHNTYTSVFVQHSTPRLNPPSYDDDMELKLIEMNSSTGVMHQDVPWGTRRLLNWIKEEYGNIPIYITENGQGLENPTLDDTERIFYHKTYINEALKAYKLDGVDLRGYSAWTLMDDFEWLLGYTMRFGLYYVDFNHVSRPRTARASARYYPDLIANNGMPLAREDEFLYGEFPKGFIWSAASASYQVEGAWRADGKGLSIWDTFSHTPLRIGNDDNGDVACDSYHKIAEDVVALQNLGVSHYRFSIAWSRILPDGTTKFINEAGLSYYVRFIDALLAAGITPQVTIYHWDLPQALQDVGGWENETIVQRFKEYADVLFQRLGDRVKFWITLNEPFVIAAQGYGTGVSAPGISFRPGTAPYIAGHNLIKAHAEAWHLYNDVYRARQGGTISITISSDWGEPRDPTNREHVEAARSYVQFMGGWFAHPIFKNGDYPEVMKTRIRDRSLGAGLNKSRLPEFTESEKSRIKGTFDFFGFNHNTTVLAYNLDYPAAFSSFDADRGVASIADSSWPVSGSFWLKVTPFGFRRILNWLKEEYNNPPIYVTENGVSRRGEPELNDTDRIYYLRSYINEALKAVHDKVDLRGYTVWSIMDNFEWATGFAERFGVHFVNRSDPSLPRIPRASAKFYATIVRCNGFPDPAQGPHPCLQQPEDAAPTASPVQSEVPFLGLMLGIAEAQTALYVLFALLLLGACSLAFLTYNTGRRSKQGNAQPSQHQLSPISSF
Source text: as §1

β-Mannosidase (snail) = experiment: Glycosidase inhibition: β-mannosidase (snail); settings: 1000 μM
Source text: as §1

[2] = biological target: T3, α-L-Fucosidase (bovine kidney) (Bos taurus, UniProt Q2KIM0); experiment: Glycosidase inhibition: α-L-fucosidase (bovine kidney); settings: read-out: inhibition % at 1000 μM
T3 construct: purchased Sigma-Aldrich Co; host or cells: bovine kidney
T3 sequence (Q2KIM0 23-468): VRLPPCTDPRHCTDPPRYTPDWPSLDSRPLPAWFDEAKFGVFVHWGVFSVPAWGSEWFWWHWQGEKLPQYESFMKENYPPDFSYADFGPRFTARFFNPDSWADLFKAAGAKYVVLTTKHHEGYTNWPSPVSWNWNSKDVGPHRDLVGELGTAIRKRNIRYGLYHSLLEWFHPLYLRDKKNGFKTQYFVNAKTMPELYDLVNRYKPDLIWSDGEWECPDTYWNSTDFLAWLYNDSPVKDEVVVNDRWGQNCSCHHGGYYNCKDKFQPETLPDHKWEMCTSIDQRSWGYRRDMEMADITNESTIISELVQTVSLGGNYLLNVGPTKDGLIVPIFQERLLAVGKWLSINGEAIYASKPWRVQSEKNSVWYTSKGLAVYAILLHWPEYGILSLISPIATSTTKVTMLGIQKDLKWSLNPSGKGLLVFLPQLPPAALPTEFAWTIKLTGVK
Source text: as §1

α-L-Rhamnosidase = α-L-Rhamnosidase (Penicillium decumbens, UniProt S7ZS15); experiment: Glycosidase inhibition: α-L-rhamnosidase (Penicillium decumbens)
Source text: as §1, with “After centrifugation (600 g; 10 min), 0.035 mL of the resulting reaction mixture were added to 2.1 mL of the Glucose CII-test Wako (Wako Pure Chemical Ind., Osaka, Japan).” left out, “The reaction mixture (0.2 mL) contained 2 mM of the substrate and the appropriate amount of enzyme. The reaction was stopped by adding 0.4 mL of 400 mM Na2CO3.” left out

α-L-Rhamnosidase, sequence (S7ZS15 entry or part of it): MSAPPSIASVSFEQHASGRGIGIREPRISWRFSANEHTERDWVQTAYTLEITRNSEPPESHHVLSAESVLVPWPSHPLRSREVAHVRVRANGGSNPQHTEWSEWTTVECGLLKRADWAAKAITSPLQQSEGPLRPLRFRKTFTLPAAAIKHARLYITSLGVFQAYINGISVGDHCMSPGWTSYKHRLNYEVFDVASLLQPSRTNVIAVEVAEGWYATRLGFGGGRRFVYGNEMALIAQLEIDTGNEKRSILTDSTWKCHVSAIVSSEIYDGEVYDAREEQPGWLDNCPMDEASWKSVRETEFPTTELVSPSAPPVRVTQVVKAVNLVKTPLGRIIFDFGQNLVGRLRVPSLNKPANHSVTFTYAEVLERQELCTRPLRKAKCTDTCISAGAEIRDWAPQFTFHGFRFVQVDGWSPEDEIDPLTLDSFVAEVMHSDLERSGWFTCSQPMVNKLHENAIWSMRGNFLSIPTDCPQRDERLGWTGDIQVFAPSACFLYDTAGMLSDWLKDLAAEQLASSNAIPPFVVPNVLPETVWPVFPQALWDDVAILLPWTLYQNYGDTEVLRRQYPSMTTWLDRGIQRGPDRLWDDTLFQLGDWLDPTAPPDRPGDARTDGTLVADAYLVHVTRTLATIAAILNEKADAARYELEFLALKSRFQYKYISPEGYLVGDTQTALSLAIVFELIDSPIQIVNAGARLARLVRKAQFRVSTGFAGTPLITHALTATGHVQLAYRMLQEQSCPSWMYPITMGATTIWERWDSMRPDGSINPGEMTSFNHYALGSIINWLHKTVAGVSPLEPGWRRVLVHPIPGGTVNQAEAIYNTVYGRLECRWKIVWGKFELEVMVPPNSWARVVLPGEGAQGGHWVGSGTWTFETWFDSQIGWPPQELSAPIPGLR
T1 sequence (P53341 whole entry): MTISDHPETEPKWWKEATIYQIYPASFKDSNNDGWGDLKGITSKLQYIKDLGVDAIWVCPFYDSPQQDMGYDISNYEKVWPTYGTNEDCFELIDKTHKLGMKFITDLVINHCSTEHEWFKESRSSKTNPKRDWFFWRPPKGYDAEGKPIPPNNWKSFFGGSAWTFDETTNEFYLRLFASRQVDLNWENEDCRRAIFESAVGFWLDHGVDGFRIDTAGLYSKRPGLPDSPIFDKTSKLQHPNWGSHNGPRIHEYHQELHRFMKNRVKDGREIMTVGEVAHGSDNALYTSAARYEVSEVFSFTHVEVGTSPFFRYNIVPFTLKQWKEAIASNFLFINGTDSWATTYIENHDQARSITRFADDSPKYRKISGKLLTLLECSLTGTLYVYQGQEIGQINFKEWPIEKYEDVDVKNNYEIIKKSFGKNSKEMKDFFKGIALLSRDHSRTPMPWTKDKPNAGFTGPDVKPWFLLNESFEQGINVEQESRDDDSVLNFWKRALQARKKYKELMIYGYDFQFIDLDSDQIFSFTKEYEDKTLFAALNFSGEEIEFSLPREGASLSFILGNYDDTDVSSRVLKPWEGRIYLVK

Row | Compound | inhibition at 1000 µM (α-Glucosidase (yeast)) | inhibition % at 1000 μM (Rat intestinal maltase) | inhibition % at 1000 μM (β-Glucosidase (almond)) | inhibition at 1000 µM [1] | inhibition % at 1000 μM (β-Mannosidase (snail)) | inhibition at 1000 µM [2] | inhibition at 1000 µM (α-L-Rhamnosidase)
1 | CC[C@@H]1CN[C@H]2C[C@@H](O)[C@H](O)[C@@H](O)[C@H]12 [Compound 10, (3S,3aR,4S,5S,6R,7aS)-3-Ethyloctahydro-1H-indole-4,5,6-triol] | 16% | 4.1% ^a | 12% ^a | 0.6% | 0% ^a | 7.5% | 0%
2 | CC[C@H]1CN[C@H]2C[C@@H](O)[C@H](O)[C@@H](O)[C@H]12 [Compound 13, (3R,3aR,4S,5S,6R,7aS)-3-ethyloctahydro-1H-indole-4,5,6-triol] | 19.5% | 0% ^a | 5% ^a | 7.4% | 2.3% ^a | 12.9% | 0%
